# pIC50: −log10 of the molar value. “Also recorded” adds a separate entry of the source.
# Key:
# lasR-lasI = test: Bioluminescence QS reporter bacteria, lasRI; type: cell-based, P. aeruginosa; details: Pseudomonas aeruginosa
# Protocol: (§1) FIGS. 13A-13C include vertical bar graphs showing the dose response inhibition of QS by PL-18. Bioluminescence indicator bacteria containing the P. aeruginosa reporter genes rhlRI (13A) and lasRI (13B) were used. The reporter bacteria were incubated with and range of PL-18 concentrations or DMSO, together with (+AI) or without (−AI) the proper auto-inducer. Bioluminescence was recorded at 15 min intervals for 10 hrs at 37° C. The maximum signal in each group was normalized to the inducer's bioluminescence maximum signal with 0.5% DMSO. Mean±SD, One-way ANOVA followed by Dunett's multiple comparisons test was performed (p-value ***≤0.0002). N=9 (triplicate samples in three independent experiments). (13C) RT-qPCR of P. aeruginosa (PA01) QS genes. PA01 was co-incubated with two doses of PL-18 for seven hours, lysed and total RNA was extracted and converted to cDNA followed by target genes qPCR amplification. N≥16, Mean±SD. Two-way ANOVA, 95% confidence interval.
# (§2) The inhibition of rhlR-rhlI system was slightly better than the inhibition of lasR-lasI. […] The relative transcription levels of QS genes lasR, lasI, rhlR and rhlI, was determined by RT-qPCR.
# [1] = system: Chromobacterium violaceum (CV026); test: Quorum sensing inhibition test with bio-reporter CV026 (TLC overlay); type: cell-based; as to Degree of quorum sensing inhibition (QSI), CV026: key: −: no inhibition; +: low inhibition; ++: medium inhibition; +++: strong inhibition
# In short: (§3)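 Compounds (40 mM in acetonitrile, 20 μl) were spotted on TLC and overlaid with soft agar reporter cultures, incubated overnight at 30 °C. CV026 was in LB with 500 nM 3-oxo-C6 (purple pigment), and KYC55 was in AT medium with 5 nM 3-oxo-C8 and 60 μg/ml X-gal (blue). Inhibition zone diameter was measured.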
# NF-kB = test: NF-kB-luciferase reporter gene assay in L428 cells; type: cell-based, human; details: Table 6 summary; also: key: +: active; −: inactive
# Protocol: FIG. 7 includes a vertical bar graph showing a dose response of NF-kB activation according to an NF-kB reporter gene luciferase assay. L428 cells were stably transfected with the NF-kB luciferase reporter gene. The cells were incubated with the compounds at different concentrations for 2 hours. […] The results represent the percentage of NF-kB activation as compared to vehicle (DMSO) treated cells. All samples were normalized to protein concentration. Mean+SD, Two-way ANOVA and Tukey's multiple comparison test. 95% confidence interval (p-values *≤0.0332, **≤0.0021, ***≤0.0002).
# L428 cells stable transfectants with the luciferase NF-kB-Luc reporter gene were generated previously described (Ozer et al., 2009), and were maintained in 500 μg/ml of G418 (G418 disulfate salt, Sigma-Aldrich). The cells (5×10^5 /well in triplicate) were incubated for 2 hrs. in 1 ml of medium containing the solvent (DMSO) or different concentrations of the molecules tested. Cells were then harvested, lysed, and monitored by a luciferase reporter assay kit (Promega) according to the manufacturer's instructions. Measurements were carried out using a luminometer (Promega, GLOMAX™ 20/20 Luminometer). Data were normalized to the protein concentration in each lysate as measured by the Bradford method (BioRad) and normalized to the control. Experiments were repeated at least three times.
# rhamnolipids = test: Rhamnolipids secretion by P. aeruginosa; type: cell-based; details: cell-free culture medium, spectrometry
# Protocol: FIGS. 14A-14B include vertical bar graphs showing that PL-18 inhibition effects on secretion of virulence factors by P. aeruginosa. (14A) Pyocyanin was extracted in the chloroform-HCl method and measured in a plate-reader at 380 nm. (14B) Determination of rhamnolipids content was measured at 570 nm of the cell-free supernatant after adjustment to pH-2. All results were normalized and compere to the control group-DMSO 0.16%. Mean±SD, One-way ANOVA followed by Dunett's multiple comparisons test (p-values *≤0.0332, ***≤0.0002). N=9 (in three independent experiments).
# To test whether PL-18 inhibits virulence effectors secreted by P. aeruginosa, the relative abundance of the virulence factors pyocyanin and rhamnolipids in the bacterial cell-free culture medium was determined by spectrometry.
# [2] = system: quorum sensing (CV026 and KYC55); test: Quorum sensing inhibition, overall statement over the bio-reporter bacteria; type: cell-based
# Protocol: TLC preparation: all derivatives were dissolved in 100% acetonitrile to a concentration of 40 mM. Then placed 20 μlon the same spot on the TLC and let the solvent evaporate before use. CV026: few colonies were transferred to liquid LB (Lenox) for overnight incubation at 30° C. in a 45 degree in orbital shaker. At the O.D. 0.8 3 ml of the starter was added to preheated soft LB agar containing 500 nM of 3-oxo-C6 (Sigma-Aldrich). The mixture was then loaded on the TLC in a glass plate for O.N. incubation in 30° C. The next day inhibition zone was measured, while QS is taking place bacteria produce purple pigment, and when QS is inhibited no pigment is produced. KYC55 (pJZ372) (pJZ384) (pJZ410): 20 μl from the frozen stock into 25 ml AT media (AT buffer×20: 1.57 M KH2PO4 pH=7.3. AT salts mix×20: 300 mM (NH4)2SO4, 13 mM MgSO4, 1.4 mM CaCl2, 0.4 mM FeSO4·7H2O, 0.26 mM MnSO4·H2O. AT media: 50 ml×20 AT-buffer, 50 ml×20 AT-salts, 10 ml 50% (w/v) glucose, add 890 ml to final volume of 1 liter.) For O.N. at 30° C. in an orbital shaker. Into preheated water agar with 25 ml AT-buffer, and 60 μg/ml X-gal and 5 nM 3-oxo-c8 (both from Sigma-Aldrich) 25 ml of the starter was added. Then, that mixture was loaded on the TLC in glass plate for O.N. incubation in 30° C. The next day the inhibition zone was measured. The bacteria produce blue pigment during QS and when QS is inhibited no pigment is produced. KYC55 (pJZ372) (pJZ384) (pJZ410) preservation in tetracycline (1 μg/ml), spectinomycin (100 μg/ml), gentamicin (100 μg/ml) (all antibiotics from Sigma Aldrich) in AT media O.N. then centrifuged and suspend in 15% glycerol frozen and maintained at −80° C.
# All the synthesized compounds were evaluated for quorum sensing inhibition against two bioreporter bacteria strains, Chromobacterium violaceum (CV026) and Agrobacterium tumefaciens (KYC55) and the results are summarized in Table 1.
# [3] = system: Agrobacterium tumefaciens (KYC55); test: Quorum sensing inhibition test with bio-reporter KYC55 (TLC overlay); type: cell-based; as to Degree of quorum sensing inhibition (QSI), KYC55: key: −: no inhibition; +: low inhibition; ++: medium inhibition; +++: strong inhibition
# In short: as §3
# rhlR-rhlI system = test: Bioluminescence QS reporter bacteria, rhlRI; type: cell-based, P. aeruginosa; details: Pseudomonas aeruginosa
# Protocol: as §1, §2
# [4] = Table 2, piperlongumine derivatives
smiles,measurement,setting,value
"COc1cc(/C=C/C(=O)N2CCC=CC2=O)cc(O)c1O [PL-18, Dihydroxy piperlongumine]",pIC50,"lasR-lasI; read-out: IC50, lasR-lasI",4.66
same,inhibition at 160 µM,lasR-lasI; read-out: lasR-lasI inhibition,76.8%
same,"Degree of quorum sensing inhibition (QSI), CV026",[1]; [4],++
same,"QSI activity against CV026, in words",[1]; running text,moderate activity
same,Anti-inflammatory,NF-kB,+
same,Inhibition of rhamnolipids secretion,rhamnolipids,inhibit both virulence factors in a dose dependent manner; also recorded: effectively attenuate
same,QSI,[2]; Table 6 summary,+
same,"QSI activity overall, in words",[2]; running text,moderate
same,"Degree of quorum sensing inhibition (QSI), KYC55",[3]; [4],+++
same,"QSI activity against KYC55, in words",[3]; running text,strong quorum sensing inhibition
same,pIC50,"rhlR-rhlI system; read-out: IC50, rhlR-rhlI",4.74
same,inhibition at 160 µM,rhlR-rhlI system; read-out: Inhibition of rhlR-rhlI,85.6%
